Assay results as given in patent US20090312297A1, “METHODS FOR TREATING HYPERCHOLESTEROLEMIA AND ATHEROSCLEROSIS” (PRESIDENT AND FELLOWS OF HARVARD COLLEGE, priority 2006, published 2009).

How the values were obtained:
Type in all cases: in vivo, mouse
[1] = system: apoE−/− mice; assay: Atherosclerotic lesions in aortas (Oil-Red-O staining) of apoE−/− mice on western diet; settings: for atherosclerotic lesion area per full aorta: p<0.05 vs. control, FIG. 2(a)
Method: (§1) apoE−/− mice (a commonly used model of hypercholesterolemia and atherosclerosis) were purchased from Jackson Labs. At 6 weeks of age, the mice were placed on a western diet (to further increase cholesterol levels and vascular lesions) and treatments with either phosphate buffered saline (PBS) (vehicle) or TUDCA (500 mg/kg/day, single dose, i.p.) were started.
After 3 months of western diet and treatment, mice were sacrificed and aortas were dissected and fixed in 10% buffered formalin and stained with Oil-Red-O which stains lipids.
(§2) apoE−/− mice were purchased from Jackson Labs. At 6 weeks of age, the mice were placed on a western diet and treatments with either phosphate buffered saline (PBS) (vehicle); TUDCA (50 mg/kg/day or 500 mg/kg/day, single dose, i.p.); or 4-PBA (10 mg/kg/day, 200 mg/kg/day, or 1 g/kg/day, single dose, oral gavage) were started.
After 3 months of western diet and treatment, mice were sacrificed and aortas were dissected and fixed in 10% buffered formalin and stained with Oil-Red-O. The amount of atherosclerotic lesion area per full aorta was determine and is expressed as a percent as shown in FIG. 2(a). Mice receiving vehicle (PBS) developed robust atherosclerotic lesions in the aortic arch as well as in the thoracic and abdominal parts of the aorta (0.25%±0.06). […] PBA administration at a dose of 10 mg/kg/day was also found to be effective in reducing formation of atherosclerotic lesions (0.09%±0.03, n=4, p<0.05 vs. control).

[2] = system: apoE−/− mice; assay: Lipoprotein profile analysis of serum by HPLC in apoE−/− mice on western diet; settings: Example 2, 3 months
Method: as §2
(§3) Blood samples were obtained from the animals described above. Lipoprotein profiles analysis was performed by HPLC (FIG. 2b), and total cholesterol levels (FIG. 2c). […] Moreover, the ability to reduce the development of atherosclerotic lesions is not dependent on the ability of a compound to reduce cholesterol.

[3] = system: apoE−/− mice; assay: Serum total cholesterol levels in apoE−/− mice on western diet; settings: 3 months
Method: as §1
Blood samples were obtained from the animals described above and serum cholesterol levels were determined by the Piccolo automated device with lipid panel (Abaxis, Calif.).
as §2, §3

## O=C(O)CCCc1ccccc1 [PBA, 4-phenyl butyrate]
[1]; Example 1, about 10 mg/kg/day, similar conditions
  amount of atherosclerotic lesion relative to control treated animals: effective in reducing the amount of atherosclerotic lesion
[1]; Example 2, 10 mg/kg/day oral gavage, 3 months, n=4
  atherosclerotic lesion area per full aorta: 0.09%±0.03
[1]; Example 2, higher doses (200 mg/kg/day, 1 g/kg/day), oral gavage, 3 months
  reduction of formation of atherosclerotic lesions: no similar reduction was observed
[2]; 4-PBA oral gavage (10 mg/kg in FIG. 2)
  total cholesterol or specific lipoprotein levels: no significant changes

## C[C@H](CCC(=O)NCCS(=O)(=O)O)[C@H]1CC[C@H]2[C@@H]3[C@@H](O)C[C@@H]4C[C@H](O)CC[C@]4(C)[C@H]3CC[C@]12C [TUDCA, tauroursodeoxycholic acid]
[1]; Example 1, 500 mg/kg/day, single dose, i.p., 3 months of western diet and treatment, vs PBS
  Oil-Red-O staining of aortas: PBS treated animals had substantially more Oil-Red-O staining
[1]; Example 2, 50 mg/kg/day i.p., 3 months, n=3
  atherosclerotic lesion area per full aorta: 0.03%±0.01
[1]; Example 2, 500 mg/kg/day i.p., 3 months, n=3
  atherosclerotic lesion area per full aorta: 0.01%±0.01
[3]; Example 1, 500 mg/kg/day, single dose, i.p., Piccolo lipid panel, FIG. 1, vs PBS
  serum cholesterol levels: significantly (p<0.001) lowered
[3]; Example 2, 500 mg/kg/day i.p., FIG. 2c
  total cholesterol: significant decrease
[2]; 50 mg/kg/day i.p.
  total cholesterol or specific lipoprotein levels: no significant changes
[2]; 500 mg/kg/day i.p., FIG. 2b
  HDL: marked increase
  LDL: significant decrease
  VLDL: significant decrease
